Measurements as given in patent publication US4871774A, “Medical treatment” (The Boots Company PLC, priority 1987, dated 1989).

How the values were obtained:
[1] = system: dopamine reuptake; depletion of brain dopamine; assay: In vivo inhibition of dopamine reuptake (prevention of α-methyl-m-tyrosine-induced depletion of brain dopamine); set-up: species or system rat (Sprague-Dawley); conditions: oral, three doses
From the text: An in vivo test for dopamine reuptake inhibition relies on the fact that such reuptake inhibitors can prevent the entry of dopamine-depleting agents into neurons. Depleting agents interfere with the neuronal storage mechanism for dopamine so dopamine leaks into the cytoplasm where it is metabolised by monoamine oxidase. Depleting agents therefore induce a large reduction in brain dopamine levels which can be measured experimentally. Prior treatment with a dopamine reuptake inhibitor reduces the depletion of dopamine levels caused by subsequent administration of a depleting agent such as α-methyl-m-tyrosine.
Male Sprague-Dawley rats (180-220 g: Charles River) were randomly assigned to various treatment groups. […] Thirty minutes later, one vehicle treated group and all the test groups were given an i.p. injection (2 ml/kg) of the depleting agent α-methyl-m-tyrosine (25 mg/kg; Sigma Chemical Co.). […]
Brain samples were thawed and homogenised in 4 volumes of 0.4M perchloric acid containing sodium metabisulphite (0.4 mM) and the internal standard 3,4-dihydroxybenzylamine (0.8 μM). […] Supernatants were removed and their dopamine concentration determined using an HPLC (high pressure liquid chromatography) system with fluorimetric detection.
The percentage prevention (P) of depletion of brain dopamine levels by test compounds is calculated from the formula [formula] […]

[2] = system: uptake of dopamine into synaptosomes from rat striata; assay: Inhibition of dopamine uptake in vitro by plasma from drug treated rats obtained over a period of time after a single 30 mg/kg dose; format: biochemical; conditions: for % Inhibition of dopamine uptake - Mean (± SEM): 30 mg/kg oral
Procedure: (4) Inhibition of dopamine uptake in vitro by plasma from drug treated rats obtained over a period of time after a single 30 mg/kg dose
The percentage inhibition of dopamine uptake was determined in a similar manner to that described in (3) above. […]

[3] = system: dopamine reuptake; unilateral nigrostriatal lesioned rats; assay: Ipsilateral circling behaviour of unilateral nigrostriatal (6-OHDA) lesioned rats; format: in vivo, rat (CD); conditions: 30 mg/kg oral
From the text: The two tracts of the nigrostriatal dopamine system are independent and are located on either side of the midline of the brain. When one tract is destroyed using the specific neurotoxin, 6-hydroxydopamine (6-OHDA), rats will display characteristic circling behaviour after injection of dopaminergic drugs. The direction of rotation, however, is dependent on the stimulus employed. Drugs which inhibit dopamine reuptake can only function on the unlesioned side of the brain and induce circling towards the lesion site (known as ipsilateral circling.)
Male CD rats (250-300 g: Charles River) were anaesthetised with `Equithesin` type anaesthetic (3.2 ml/kg i.p.) and secured in a stereotaxic frame (David Kopf Small Animal Stereotaxic Instrument DKI 900). After shaving the area, a saggital incision of 1.5-2 cm was made and skin flaps dissected from the skull. A small hole was made in the skull, using a No. 6 dental burr, to allow the tip of a 30 s.w.g. stainless steel cannula to be inserted to the left substantia nigra. This was located by using the following co-ordinates, using skull landmark bregma as the zero reference point; rostral-caudal -2.8; medial-lateral +2.0; dorsal-ventral -8.0 from the surface of the dura, all co-ordinates measured in millimetres. This system of co-ordinates is a modification of the de Groot system as described by Pellegrino et al (A stereotaxic atlas of the rat brain, 2nd Edition, Plenum Press 1979). 6-Hydroxydopamine HBr (2 μg/μl, as base: Sigma Chemical Co.) was injected into the left substantia nigra at 1 μl/min; a total of 8 μg was administered over a period of 4 minutes using an infusion pump (Braun `Perfusor` ED2). After removal of the cannula, the skin flaps were joined with a single everted suture and the animal allowed to recover.
After 21 days, the circling behaviour of the rats was examined. They were placed, individually, in circular plastic arenas (30 cm diameter×12 cm high) for 1 hour, with no access to food or water during this period. […] One `turn` consisted of rotation through 360° in either direction. As rats were always lesioned on the left side of the brain, anticlockwise turns were ipsilateral.
Control values were determined for all rats by observing their spontaneous circling behaviour in the arenas without prior dosing. The mean turns per minute was always less than 1.
The rats were challenged with an intraperitoneal dose of methamphetamine (2 mg/kg) and immediately placed in the arenas. In these experiments circling behaviour was monitored during two periods, 0-1 h and 4-5 h after dosing. Rats giving a mean of more than 5 ipsilateral turns per minute during the first hour in response to methamphetamine were used in subsequent tests. Following selection, the rats were used in groups of 5 or more rats to test the drug under investigation.

[4] = system: brain DOPAC (turnover of dopamine); assay: Turnover of dopamine in rodent brains by determination of DOPAC concentrations (rat); format: in vivo, rat (Sprague-Dawley); conditions: 10 mg/kg oral, 2 h
From the text: (7) Measurement of the turnover of dopamine in rodent brains by determination of DOPAC concentrations following drug administration
Inhibition of dopamine reuptake in the brain reduces the rate at which dopamine is synthesised and metabolised (the turnover rate). This can be assessed by measuring the amount of the dopamine metabolite DOPAC (dihydroxyphenylacetic acid) which accumulates in the brains of rats and mice. In addition, the administration of probenecid blocks active transport of DOPAC out of the brain. The subsequent rise in brain DOPAC concentrations is attenuated by drugs which inhibit dopamine reuptake.
One group of animals was killed two hours later. An additional group was administered probenecid (200 mg/kg i.p.; Sigma Chemical Co.) 30 minutes after the drug and then killed after a further 90 minutes. The animals were killed by decapitation and brains were rapidly removed and dissected on an ice-chilled porcelain plate. They were cut longitudinally along the midline; one half was retained for whole brain analysis while the striatum was dissected from the other. Tissues were immediately frozen in liquid N2 and stored over dry ice (-80° C.) until assay. Whole brain tissue was homogenised in 5 volumes 0.4M perchloric acid (containing 0.01% (w/v) Na2 S2 O3, 0.1% (w/v) EDTA) and striata in 600 μl using a Polytron (setting 6; 20 seconds) fitted with a microprobe (PT-7). Samples were then centrifuged at 30,000×g (whole brain samples) or at 3,500×g (striata) using a microfuge (Beckman) set up to take 1200 μl polypropylene tubes. Aliquots (50 μl) of the clear supernatants were then injected automatically into the chromatographic system for the separation and quantification of DOPAC.
High pressure liquid chromatography (HPLC) combined with electrochemical detection (ECD) was employed to assay DOPAC. A mobile phase (0.1M CH3 OH (84:16%) containing 0.1% octanesulphonic acid, 0.1% EDTA and 0.01% Na2 S2 O3) was delivered by a Dupont 870 pump module at a flow-rate of 1.0 ml/min to a reverse-phase analytical column (25×0.4cm) and guard column (both packed with 5 μm Spherisorb ODS 2) maintained at 45° C. in a thermostatically controlled cabinet. Automatic sample injection was provided by a WISP 710B module (Waters Associates) and ECD was performed using a Bioanalytical Systems LC4A controller and cell, with a glassy carbon electrode maintained at +0.65 v versus a Ag-AgCl reference electrode. The controller was set at 20 nA full-scale and output from the cell recorded using a Spectra-Physics 4100 automatic computing integrator. Quantification of DOPAC was effected by the computing integrator after calibration of the HPLC-ECD system using DOPAC of known concentration and including isoprenaline as an internal standard. […]

With `CC(C)CC(N(C)C)C1(c2ccc(Cl)cc2)CCC1.Cl.O` (stereo not drawn) [N,N-dimethyl-1-[1-(4-chlorophenyl)cyclobutyl]-3-methylbutylamine hydrochloride monohydrate] the “prevention of brain dopamine depletion (in words)” value [1] was “dose-dependent prevention of brain dopamine depletion”, the “% Inhibition of dopamine uptake - Mean (± SEM)” value (shortened to “% Inhibition … (± SEM)”) ([2]; 1 hr after dosing) was 45.0 ± 4.1% and the “% Inhibition … (± SEM)” value ([2]; 3 hrs after dosing) was 63.0 ± 1.7%. The “% Inhibition … (± SEM)” value ([2]; 8 hrs after dosing) was 73.4 ± 3.5%, the “% Inhibition … (± SEM)” value ([2]; 24 hrs after dosing) was 31.5 ± 2.4% and the “% Inhibition … (± SEM)” value ([2]; 48 hrs after dosing) was 19.5 ± 5.2%. The “% Inhibition … (± SEM)” value ([2]; 72 hrs after dosing) was 10.4 ± 1.6%, the “persistence of inhibition of dopamine uptake by rat plasma (in words)” value ([2]; single 30 mg/kg oral dose) was “persists for a considerable period of time after dosing” and the “duration of action as an inhibitor of dopamine reuptake (in words)” value [3] was “long lasting action as an inhibitor of dopamine reuptake”. For the same molecule, the “ipsilateral turns/min (Mean ± SEM)” value ([3]; 0-1 hrs after dosing) was 3.0 ± 0.6 turns/min, the “ipsilateral turns/min (Mean ± SEM)” value ([3]; 4-5 hrs after dosing) was 6.7 ± 1.4 turns/min and the “ipsilateral turns/min (Mean ± SEM)” value ([3]; 8-9 hrs after dosing) was 8.6 ± 1.8 turns/min. The “ipsilateral turns/min (Mean ± SEM)” value ([3]; 24-25 hrs after dosing) was 6.2 ± 1.7 turns/min, the “ipsilateral turns/min (Mean ± SEM)” value ([3]; 48-49 hrs after dosing) was 1.7 ± 0.5 turns/min and the “Brain DOPAC Levels” value ([4]; A (drug alone), striatum, control 921 ± 56) was 601 ± 17 ng/g wet wt. The “Brain DOPAC Levels” value ([4]; A (drug alone), whole brain, control 62 ± 5) was 36 ± 4 ng/g wet wt, the “Brain DOPAC Levels” value ([4]; B (with probenecid 200 mg/kg i.p.), striatum, control 1325 ± 79) was 920 ± 70 ng/g wet wt and the “Brain DOPAC Levels” value ([4]; B (with probenecid 200 mg/kg i.p.), whole brain, control 169 ± 3) was 130 ± 9 ng/g wet wt.
